Assay results published in patent US5789595A, “Tetrahydroisoquinoline derivative and medical preparation containing the same” (Terumo Kabushiki Kaisha, priority 1994, dated 1998).
pIC50: −log10 of the molar value. Structures can show the parent of a compound that is named as a salt.

Columns and labels:
Format in all cases: cell-based
[1] = system: human platelet; assay: ADP-induced aggregation of human platelets (platelet-rich plasma), inhibition; details: human PRP, 20 to 30×1e4 platelets/μl, 37° C., read-out: Inhibitory action for agglutination by ADP IC50
Experimental: Inhibity effects on human platelet of the invention derivatives to evaluate the activity for inhibiting aggregation induced by ADP (adenosine diphosphate), thrombin, and fibrinogen were measured in accordance with the procedure as described below. (1) Preparation of platelet-rich plasma, washed platelets, and α-chymotrypsin-treated platelets Human whole blood withdrawn from human elbow vein into 10% volume of 3.8% sodium citrate was centrifuged at 135×g (1100 rpm) for 10 minutes, and the supernatant was collected as platelet-rich plasma (PRP). The residue was further centrifuged at 1600×g (3000 rpm) for 10 minutes, and the supernatant was collected as platelet-poor plasma (PPP). PRP and PPP were used for the measurement of the aggregation induced by ADP. In the meanwhile, PRP was applied to Sepharose CL-2B column (manufacture by Pharmacia) equilibrated with HEPES buffer, pH 7.4 containing 0.5% BSA and 5.5 mM glucose, and the fractions eluted in the void volume were collected as platelet-suspension, and used for the measurement of the aggregation induced by thrombin. In addition, washed platelet were treated with α-chymotrypsin of the final concentration of 10 U/ml for 30 minutes at room temperature. Then, the protease reaction was stopped by the addition of trypsin-chymotrypsin inhibitor (0.5 mg/ml), and α-chymotrypsin-treated platelet-suspension was used for the aggregation induced by fibrinogen. (2) Measurement of ADP-induced aggregation PRP was diluted with PPP to adjust the number of platelets to 20 to 30×1e4/μl, and the aggregation induced by ADP was measured with aggligometer (HEMATRACER VI, manufactured by NBS). 0.2 ml of PRP was placed in the cubette of the aggligometer with 25 μl of the test solution or physiological saline (control), and was incubated at 37° C. for 5 minutes with stirring (1000 rpm). Then, 25 μl of ADP solution was added and the time course of the light transmittance was recorded. The transmittance of PRP and PPP were calibrated as 0 and 100% respectively, and the maximum transmittance after adding the agonist was taken for the maximum aggregation. The concentration of 50% inhibition (IC50) was calculated from the proportion of the maximum aggregation with test solution to physiological saline.

[2] = system: human platelet; assay: Thrombin-induced aggregation of human platelets (washed platelet suspension), inhibition; details: HEPES buffer pH 7.4, 2 mM CaCl2 and MgCl2, read-out: Inhibitory action for agglutination by thrombin IC50
Experimental: (§1) Inhibity effects on human platelet of the invention derivatives to evaluate the activity for inhibiting aggregation induced by ADP (adenosine diphosphate), thrombin, and fibrinogen were measured in accordance with the procedure as described below.
(§2) (1) Preparation of platelet-rich plasma, washed platelets, and α-chymotrypsin-treated platelets
(§3) Human whole blood withdrawn from human elbow vein into 10% volume of 3.8% sodium citrate was centrifuged at 135×g (1100 rpm) for 10 minutes, and the supernatant was collected as platelet-rich plasma (PRP). The residue was further centrifuged at 1600×g (3000 rpm) for 10 minutes, and the supernatant was collected as platelet-poor plasma (PPP). PRP and PPP were used for the measurement of the aggregation induced by ADP. In the meanwhile, PRP was applied to Sepharose CL-2B column (manufacture by Pharmacia) equilibrated with HEPES buffer, pH 7.4 containing 0.5% BSA and 5.5 mM glucose, and the fractions eluted in the void volume were collected as platelet-suspension, and used for the measurement of the aggregation induced by thrombin. In addition, washed platelet were treated with α-chymotrypsin of the final concentration of 10 U/ml for 30 minutes at room temperature. Then, the protease reaction was stopped by the addition of trypsin-chymotrypsin inhibitor (0.5 mg/ml), and α-chymotrypsin-treated platelet-suspension was used for the aggregation induced by fibrinogen.
(3) Measurement of thrombin-induced aggregation
The platelet-suspension was diluted with HEPES buffer, pH 7.4 to adjust the number of platelets to 20 to 30×1e4/μl, and calcium chloride and magnesium chloride were respectively added to 2 mM (final concentration). The aggregation induced by thrombin was measured with this platelet-suspension and HEPES buffer (contrast) by the same procedure as the measurement of the aggregation induced by the ADP. The concentration of 50% inhibition (IC50) was calculated from the proportion of the maximum aggregation with test solution to physiological saline.

[3] = system: human platelet; assay: Fibrinogen-induced aggregation of α-chymotrypsin-treated human platelets, inhibition; details: fibrinogen (0.4 mg/ml), HEPES buffer pH 7.4, PGE1 1 μM, read-out: Inhibitory action for agglutination by fibrinogen IC50
Experimental: as §1, §2
as §3, with “In addition, washed platelet were treated with α-chymotrypsin of the final concentration of 10 U/ml for 30 minutes at room temperature. Then, the protease reaction was stopped by the addition of trypsin-chymotrypsin inhibitor (0.5 mg/ml), and α-chymotrypsin-treated platelet-suspension was used for the aggregation induced by fibrinogen.” left out
α-chymotrypsin-treated platelet-suspension was diluted with HEPES buffer, pH 7.4 to adjust the number of platelets to 20 to 30×1e4/μl. […] The aggregation induced by fibrinogen (0.4 mg/ml) was measured with this platelet-suspension and the HEPES buffer (contrast). […]

Compound | pIC50 [1] | pIC50 [2] | pIC50 [3]
CC1(C)Cc2ccc(NC(=O)COC3CCNCC3)cc2CN1CCC(=O)O [Ex. 12, 2-(2-carboxyethyl)-3,3-dimethyl-7-(piperidine-4-yloxyacetylamino)-1,2,3,4-tetrahydroisoquinoline hydrochloride] | 4.92 | – | –
CN(C(=O)COC1CCNCC1)c1ccc2c(c1)CN(CCC(=O)O)CC2 [Ex. 5, 7-[(piperidine-4-yloxyacetyl)methylamino]-2-[2-(carboxy)ethyl]-1,2,3,4-tetrahydroisoquinoline] | 4.09 | 4.37 | –
O=C(O)CN1CCc2ccc(NC(=O)COC3CCNCC3)cc2C1 [Ex. 1, 7-(piperidine-4-yloxyacetylamino)-2-carboxymethyl-1,2,3,4-tetrahydroisoquinoline] | 5.30 | 5.32 | –
CC1CC(OCC(=O)Nc2ccc3c(c2)CN(CCC(=O)O)CC3)CC(C)N1 (centres unmarked) [Ex. 7, 7-(2,6-dimethylpiperidine-4-yloxyacetylamino)-2-(2-carboxyethyl)-1,2,3,4-tetrahydroisoquinoline] | < 5.00 | – | –
O=C(O)CCCN1CCc2ccc(NC(=O)COC3CCNCC3)cc2C1 [Ex. 3, 7-(piperidine-4-yloxyacetylamino)-2-(3-carboxypropyl)-1,2,3,4-tetrahydroisoquinoline] | < 5.00 | < 5.00 | –

Stronger by pIC50 [1], values ahead:

pIC50 [1] | pIC50 [2] | pIC50 [3] | Compound
6.42 | – | – | CC1c2cc(NC(=O)COC3CCNCC3)ccc2CCN1CCC(=O)O (centres unmarked) [Ex. 10, 2-(2-carboxyethyl)-1-methyl-7-(piperidine-4-yloxyacetylamino)-1,2,3,4-tetrahydroisoquinoline hydrochloride]
7.01 | 7.18 | 7.42 | O=C(O)CCN1CCc2ccc(NC(=O)COC3CCNCC3)cc2C1 [Ex. 2, 7-(piperidine-4-yloxyacetylamino)-2-carboxyethyl-1,2,3,4-tetrahydroisoquinoline]
5.54 | 5.72 | – | O=C(O)CCN1CCc2ccc(NC(=O)COC3CCNCC3)cc2C1c1ccccc1 (centres unmarked) [Ex. 6, 2-(carbonylethyl)-1-phenyl-7-(piperidine-4-yloxyacetylamino)-1,2,3,4-tetrahydroisoquinoline]
6.82 | – | – | CC1CN(CCC(=O)O)Cc2cc(NC(=O)COC3CCNCC3)ccc21 (centres unmarked) [Ex. 11, 2-(2-carboxyethyl)-4-methyl-7-(piperidine-4-yloxyacetylamino)-1,2,3,4-tetrahydroisoquinoline hydrochloride]
6.64 | – | – | CC1CNCCC1OCC(=O)Nc1ccc2c(c1)CN(CCC(=O)O)CC2 (centres unmarked) [Ex. 8, 7-(3-methylpiperidine-4-yloxyacetylamino)-2-(2-carboxyethyl)-1,2,3,4-tetrahydroisoquinoline]
6.49 | – | – | CC(CC(=O)O)N1CCc2ccc(NC(=O)COC3CCNCC3)cc2C1 (centres unmarked) [Ex. 9, 7-(piperidine-4-yloxyacetylamino)-2-(2-carboxy-1-methylethyl)-1,2,3,4-tetrahydroisoquinoline]
